Test results reported in patent publication US20160074297A1, “COMBINATION OF PETROSELINIC ACID AND TAURINE FOR ORAL ADMINISTRATION FOR HAIR AGING CONTROL” (NUTRICOS TECHNOLOGIES, priority 2013, published 2016).

Test system: human mononuclear cells
Test: Production of lipoxin A4 in human mononuclear cells in vitro stimulated with PMA/A23187 plus DHA/EPA, quantified by LC-MS
Type: cell-based
Details: coriander oil 0.25 mg/ml, taurine 3.1 mg/ml; 30 minutes pre-incubation, then 2 hours of stimulation with phorbol myristate 0.05 μM, calcium ionophore 1 μM, DHA and EPA 1 μg/mL; cell supernatant
Procedure: Mononuclear blood cells are cultured under 5% CO2 and at 37° C. in a serum-free medium for macrophages (SFM Macrophage; Invitrogen 12065074) for 24 hours. […] The inflammatory response was then triggered in the presence of phorbol myristate (0.05 μM) and calcium ionophore (1μM) and a lipid substrate mixture composed of docosahexaenoic acid (DHA−1 μg/mL) and eicosapentaenoic acid (EPA-1μg/mL). The supernatants were then collected after 2 hours of stimulation and frozen at −80° C. before preparation for analysis by mass spectrometry. Experimental triplicates (three wells) were prepared per experimental condition. Into each culture plate was placed a control corresponding to cells stimulated with the PMA/A23187 mixture and/or with addition of the equimolar mixture of fatty acids. The frozen supernatants were concentrated by solid-phase extraction (SPE) and taken up in methanol before spectrometric analysis. The analytical method used consists in separating the various analytes by high-pressure liquid chromatography as a function of their retention time and in quantifying them by mass spectrometry. The analyses were performed using an LC 1290 Infinity chain (Agilent Technologies) coupled to a 6460 Triple Quad LC/MS mass spectrometer (Agilent Technologies) equipped with an electrospray ionization source (Jet stream technology) operating in negative mode. […]

Compound: NCCS(=O)(=O)O [Taurine]
- Level of lipoxin A4 production (% modulation relative to the control): +38%
